Experiments:
[1] = Dynamic vapor sorption (DVS) analysis; type: physicochemical; conditions: relative humidity between 0-95 percent, Form I/Pattern A
Description: Dynamic Vapor Soprtion (DVS) analysis was performed using an Aquadyne DVS-2 gravimetric water sorption analyzer. The relative humidity was adjusted between 2-95% and the weight of the sample was continuously monitored and recorded with respect to the relative humidity and time.

[2] = Thermal gravimetric analysis (TGA); type: physicochemical; conditions: from 35 to 150° C.; Form I
Description: Thermal Gravimetric Analysis (TGA) data were collected using a TA Instruments TGA Q500. Approximately, 5-10 mg samples were placed in an open, pre-tared aluminum sample pan and scanned from 25 to 300° C. at a rate of 10° C./min using a nitrogen purge at 60 mL/min.

O=C(CCCCCCNC(=O)c1cnc(N(c2ccccc2)c2ccccc2Cl)nc1)NO [Compound (I), 2-((2-chlorophenyl)(phenyl)amino)-N-(7-(hydroxyamino)-7-oxoheptyl)pyrimidine-5-carboxamide]
change in the crystalline form ([1]; after DVS): no change in the crystalline form
moisture uptake [1]: less than 0.2%
weight loss [2]: less than 0.1%

Source: patent publication US10144714B2, “Methods of making protein deacetylase inhibitors” (Acetylon Pharmaceuticals, Inc., priority 2015, dated 2018)
